According to patent publication US20080132522A1, “2-Substituted Pyrimidines, Method for Their Production and Their Use for Controlling Pathogenic Fungi” (BASF Aktiengesellschaft, priority 2004, published 2008):

How the values were obtained:
Pyrenophora teres = assay: Activity against net blotch of barley caused by Pyrenophora teres, 1 day protective application; format: in vivo, Pyrenophora [syn. Drechslera] teres; details: 250 ppm; barley "Hanna"; after 6 days; untreated 90% infected
Procedure: The active compounds were prepared separately as a stock solution with 25 mg of active compound which was made up to 10 ml with a mixture of acetone and/or DMSO and the emulsifier Uniperol® EL (wetting agent having emulsifying and dispersing action based on ethoxylated alkylphenols) in a volume ratio solvent/emulsifier of 99 to 1. The solution was then made up to 100 ml with water. This stock solution was diluted to the active compound concentration stated below using the solvent/emulsifier/water mixture described. Activity Against Net Blotch of Barley Caused by Pyrenophora teres, 1 Day Protective Application Leaves of potted barley seedlings of the cultivar “Hanna” were sprayed to runoff point with an aqueous suspension having the concentration of active compounds stated below. 24 hours after the spray coating had dried on, the test plants were inoculated with an aqueous spore suspension of Pyrenophora [syn. Drechslera] teres, the net blotch pathogen. The test plants were then placed in a greenhouse at temperatures between 20 and 24° C. and 95 to 100% relative atmospheric humidity. After 6 days, the extent of the development of the disease was determined visually in % infection of the entire leaf area.

Botrytis cinerea = assay: Activity against gray mold on bell pepper leaves caused by Botrytis cinerea, protective application; format: in vivo; details: 250 ppm; bell pepper "Neusiedler Ideal Elite"; after 5 days; untreated 90% infected
Procedure: (§1) The active compounds were prepared separately as a stock solution with 25 mg of active compound which was made up to 10 ml with a mixture of acetone and/or DMSO and the emulsifier Uniperol® EL (wetting agent having emulsifying and dispersing action based on ethoxylated alkylphenols) in a volume ratio solvent/emulsifier of 99 to 1. The solution was then made up to 100 ml with water. This stock solution was diluted to the active compound concentration stated below using the solvent/emulsifier/water mixture described.
Activity Against Gray Mold on Bell Pepper Leaves Caused by Botrytis cinerea, Protective Application
Bell pepper seedlings of the cultivar “Neusiedler Ideal Elite” were, after 2-3 leaves were well-developed, sprayed to runoff point with an aqueous suspension having the concentration of active compound stated below. The next day, the treated plants were inoculated with a spore suspension of Botrytis cinerea which contained 1.7×10^6 spores/ml in a 2% strength aqueous biomalt solution. The test plants were then placed in a dark climatized chamber at 22-24° C. and high atmospheric humidity. After 5 days, the extent of the fungal infection on the leaves could be determined visually in %.

Alternaria solani = assay: Activity against early blight of tomato caused by Alternaria solani; format: in vivo; details: 250 ppm; tomato "Goldene Königin"; after 5 days; untreated 90% infected
Procedure: as §1
Activity Against Early Blight of Tomato Caused by Alternaria solani
Leaves of potted plants of the cultivar “Goldene Königin” were sprayed to runoff point with an aqueous suspension having the concentration of active compounds stated below. The next day, the leaves were inoculated with an aqueous spore suspension of Alternaria solani in 2% biomalt solution having a density of 0.17×10^6 spores/ml. The plants were then placed in a water-vapor-saturated chamber at temperatures of between 20 and 22° C. After 5 days, the disease on the leaves of the untreated, but infected control plants had developed to such an extent that the infection could be determined visually in %.

Row | melting point [°C] | SMILES | infection of treated leaf areas (Pyrenophora teres) | infection of treated leaf areas (Botrytis cinerea) | infection of treated leaf areas (Alternaria solani)
1 | 106 to 107 | CC(C)Oc1nc(-n2cccn2)nc(Cl)c1-c1c(F)cc(F)cc1F [1), 4-Chloro-6-isopropoxy-2-(pyrazol-1-yl)-5-(2,4,6-trifluorophenyl)pyrimidine] | only little infection | only little infection | only little infection
2 | – | CON=C(N)c1nc(Cl)c(-c2c(F)cc(F)cc2F)c(OC(C)C)n1 [3), O-Methyl (4-chloro-6-isopropoxy-5-(2,4,6-trifluorophenyl)pyrimidin-2-yl)carbamidoxime] | only little infection | only little infection | only little infection
3 | – | CC(C)(C)Oc1nc(-c2ccccn2)nc(Cl)c1-c1c(F)cccc1Cl [4)] | only little infection | only little infection | only little infection
4 | 32 | CC(C)Oc1nc(C#N)nc(Cl)c1-c1c(F)cc(F)cc1F [5), 4-Chloro-2-cyano-6-isopropoxy-5-(2,4,6-trifluorophenyl)pyrimidine] | – | – | –
